Test results as given in patent publication US5120538A, “Combinations of compounds isolated from curcuma spp as anti-inflammatory agents” (PT Darya-Varia Laboratoria, priority 1990, dated 1992).

How the values were obtained:
[1] = test system: choleretic effect of curcumin; details: cited from earlier work
cholesterol levels = details: rats; cited from earlier work
bacteria = details: in vitro; cited from earlier work
inflammation = details: cited from earlier work
[2] = test system: Oedema of right-hind paw induced by injection of 1% carrageenan solution; assay: Carrageenan-induced paw oedema inhibition in rats; format: in vivo, Male inbred albino rats, Wistar derived LMR strain; details: rat, 0.01 g one hour before induction, controls safflower oil
Protocol: Male inbred albino rats of the Wistar derived LMR strain, weighing between 140 and 160 grams are used. Each treatment group consists of ten rats. The rats are fasted for one night and weighed the next morning. Oedema is induced in the right-hind paw of each rat by means of an injection of 1% carrageenan solution. Before the injection and each hour after injection, the volume of the right-hind paw is measured. Measurement of the volume is done by dipping the rats paw into a liquid up to a predetermined mark and measuring or weighing the displaced liquid. The apparatus for measuring volume is calibrated against objects with known volumes. Animals in the treatment groups are administered the drug orally once an hour for three hours before induction of oedema. Animals in the control groups are administered either safflower oil or polyethyleneglycol (PEG) one hour before induction. Piroxicam, a known anti-inflammatory agent used as a positive control, is administered one hour before induction.

O=C(C=Cc1ccc(O)cc1)CC(=O)C=Cc1ccc(O)cc1 [Bis-desmethoxycurcumin, dihydroxydicinnamoyl methane]
choleretic effect of curcumin [1]: inhibit the choleretic effect of curcumin

COc1cc(/C=C/C(=O)CC(=O)/C=C/c2ccc(O)c(OC)c2)ccc1O [Curcumin, diferuloylmethane]
cholesterol levels (cholesterol levels): lower cholesterol levels
antibacterial activity (bacteria): antibacterial activity
anti-inflammatory effects (inflammation): anti-inflammatory effects

CN1C(C(=O)Nc2ccccn2)=C(O)c2ccccc2S1(=O)=O [Piroxicam]
% Oedema Inhibition over 6 Hr. Period After Induction, 1 hr. ([2]; 1 hr. after induction): 25.9%
% Oedema Inhibition over 6 Hr. Period After Induction, 2 hr. ([2]; 2 hr. after induction): 49.0%
% Oedema Inhibition over 6 Hr. Period After Induction, 3 hr. ([2]; 3 hr. after induction): 52.6%
% Oedema Inhibition over 6 Hr. Period After Induction, 4 hr. ([2]; 4 hr. after induction): 43.4%
% Oedema Inhibition over 6 Hr. Period After Induction, 5 hr. ([2]; 5 hr. after induction): 41.4%
% Oedema Inhibition over 6 Hr. Period After Induction, 6 hr. ([2]; 6 hr. after induction): 36.5%
